Earlier results on two molecules are cited in patent publication US6383817B2, “Cadmium is a risk factor for human pancreatic cancer” (Wake Forest University, priority 1999, dated 2002).

Like-named read-outs stand apart in the source and are kept apart here.

Series [1] concerns Louisiana red swamp crayfish (Procambarus clarkii). To be noted: day 14; crayfish fed plants grown for 7 days in 0.00224 ppb cadmium.
Series [2] deals with rats. The settings on record: repeated injections to rats.
Series [3] relates to pancreatic metallothionein. The settings on record: rats.
Assay in series [4]: not given
The source holds these as a separate data set.

For series [5], the system named is mice. To be noted: injection of 4 mg/kg, relative to saline.
The subject of series [6] is Wistar rats. The settings on record: injection, vs. 2.2% control.

Turning to `[Cd]` [cadmium], the “Accumulation of cadmium in hepatopancreata” value in series [1] is 4,657.6 ppb. For the same molecule, the “rats with hepatocytic foci in the pancreata” value in series [2] is “more than 93%”. Further, the “increase in pancreatic metallothionein” value in series [3] (injection of 4 mg/kg) is on record as 9.8 fold; in series [3] (injection of 8 mg/kg), 17.9 fold. Also, the “SMR (x100), pancreatic cancer deaths” value by setting is: (Elinder et al. (1985), male cadmium-nickel battery workers, Oskarshamn, Sweden) 130; (Järup et al. (1998), battery workers, Kalmar, Sweden, females) 220; (Järup et al. (1998), battery workers, Kalmar, Sweden, males) 148; (Sorahan et al. (1995), male copper cadmium alloy workers, England and Wales) 218. Besides, the “correlation (r) between estimated dietary intake of cadmium and pancreatic cancer mortality” value in series [4] (men) is 0.48; in series [4] (women) it was 0.25.

Turning to `[Cl][Cd][Cl]` [cadmium chloride], the “increase in the incorporation of [3H] thymidine in the pancreas” value in series [5] was 2.5 fold. Also, the “incidence of pancreatic islet cell tumors” value in series [6] is 8.5%.
